Data from US12569468B2, “Use of palovarotene in treatment against HBV virus” (YANG SHENG TANG COMPANY, LTD., priority 2020, dated 2026).

Key:
[1] = tested on: HBV; assay: Therapeutic effect on HepG2-hNTCP 2B1 infected by HBV (drug from day 6 after infection); format: cell-based, hepatitis B virus; settings: drug treatment from 6 days after HBV infection to day 12, Palovarotene at high concentrations (p<0.05), ETV 1 μM, vs blank group
Procedure: This experiment was carried out in a 24-well culture plate. […] About 1.5×10^5 HepG2-hNTCP 2B1 cells were plated in each well, and 500 μL of medium B was added to each well. After the cells adhered, medium A was used for replacement to perform the induction with Doxycycline during the whole experiment.
4 Days after the induction with Doxycycline, HBV infection was performed, and the amount of HBV in each well was 100 MOI. Before infection, HBV was diluted in medium C to obtain HBV solution, and the infection volume was 250 μL per well. During infection, the cell supernatant was first removed by suction, the HBV solution was added to the cells, and the cells were incubated for 24 hours, then the supernatant was collected as the sample of Day 0. Then the cells were washed three times with PBS, and fresh medium C was used for replacement. After that, the supernatant was collected every two days for detection, fresh medium C was used for replacement. On the 6th day, fresh drug-containing medium A was used for replacement to start drug treatment, then the supernatant was collected every two days for detection, and fresh drug-containing medium A was used for replacement, until the 12th day, all the supernatant and cells were collected for relevant detection. The detection items included HBsAg, HBeAg, HBV DNA, HBV cccDNA, and for the detection method, please refer to Example 1.

[2] = tested on: HBV; assay: Inhibitory effect on HBV infection in human primary hepatocytes (drug before infection); format: cell-based, hepatitis B virus; settings: 1, 5, 25 μM, treatment before infection, to day 8, p<0.05
Excerpt: Primary hepatocytes were isolated from humanized mice transplanted with primary human hepatocytes through perfusion technique (refer to: Foquet, Lander, et al. “Successful engraftment of human hepatocytes in uPA-SCID and FRG® KO mice.” Hepatocyte Transplantation. Humana Press, New York, NY, 2017. 117-130, Wan-Chun Li, et al. “Isolation and Culture of Adult Mouse Hepatocytes.” Mouse Cell Culture. Humana Press, 2010. 185-196.), directly cultured in 24-well plates (Collagen I pre-coated 24-well plates, purchased from Thermo Scientific) after counting (about 5×10^5 primary hepatocytes per well), and medium H was added to maintain hepatocyte morphology (refer to: Xiang, Chengang, et al. “Long-term functional maintenance of primary human hepatocytes in vitro.” Science 364.6438 (2019): 399-402.). After culturing for 24 hours, drug-containing medium H was used to replace the drug-free medium H to perform drug treatment for 24 hours, and then infection was carried out with HBV, and the amount of HBV for infection in each well was 2000 MOI. Before infection, HBV was first diluted in medium I to obtain HBV solution, and the infection volume was 250 μL/well. During infection, the cell supernatant was first removed by suction, the HBV solution was added to the cells, the cells were incubated for 24 hours, then the supernatant was collected as the sample of Day 0. Then the cells were washed 3 times with PBS that was warmed in bath at 37° C., and fresh drug-containing medium H (500 μL per well) was used for replacement, then the supernatant was collected every two days for detection, fresh drug-containing medium H was used for replacement, until the 8th day, all the supernatants and cells were collected for relevant detection. The detection items included HBsAg, HBeAg, HBV DNA, HBV cccDNA, and for the detection method, please refer to Example 1.

[3] = tested on: HepG2 hNTCP 2B1; assay: Safety assessment, CCK-8 cell activity, HepG2-hNTCP 2B1; format: cell-based; settings: 1 μM, 5 μM and 25 μM, 6 days treatment
Procedure: (§1) This experiment was carried out in a 96-well culture plate, with 8×10^4 corresponding cells plated in each well, and the corresponding medium volume was 100 μL, in which each drug to be tested in the HepG2-hNTCP 2B1, HepaRG M14A and primary hepatocyte experimental groups had three final concentrations of 1 μM, 5 μM and 25 μM, each drug to be tested in the HepAD38 cell experimental group had two final concentrations of 1 μM and 5 μM (the drug was diluted with the corresponding medium to the final concentrations, specifically please refer to Example 1, Example 2, Example 4 and Example 5), and to the blank group the same volume of culture medium without drug was added. After the cells had grown to a suitable density, drug was added to perform treatment for 6 days, during which, the medium was changed every two days with fresh drug-containing medium. After the drug treatment, 110 μL of medium containing Beyotime CCK-8 cell activity detection reagent (purchased from Beyotime, Art. No. C0038) (the volume ratio of medium to CCK-8 reagent was 100:10) was used for replacement, the cells were incubated at 37° C. for 30 min, and then all the supernatant was collected for detection of absorbance. The absorbance value was read on PHOMO microplate reader purchased from Zhengzhou Autobio.

[4] = tested on: HepaRG M14a; assay: Safety assessment, CCK-8 cell activity, HepaRG M14a; format: cell-based; settings: 1 μM, 5 μM and 25 μM, 6 days treatment
Procedure: as §1

[5] = tested on: human primary hepatocytes; assay: Safety assessment, CCK-8 cell activity, human primary hepatocytes; format: cell-based; settings: 1 μM, 5 μM and 25 μM, 6 days treatment
Procedure: as §1

## CC1(C)CCC(C)(C)c2cc(Cn3cccn3)c(/C=C/c3ccc(C(=O)O)cc3)cc21 [Palovarotene]
[1]
  HBeAg: significant inhibitory effect
  level of HBV DNA: significantly reduce
  level of HBV cccDNA: significantly reduce
[2]
  level of HBeAg in the cell supernatant: significantly inhibit
  level of HBsAg in the cell supernatant: significantly inhibit
  level of intracellular HBV DNA: significantly inhibit
  level of intracellular cccDNA: significantly inhibit
[3]
  CCK-8 absorbance value (cell activity) vs blank group: not significantly different
[4]
  CCK-8 absorbance value (cell activity) vs blank group: not significantly different
[5]
  CCK-8 absorbance value (cell activity) vs blank group: not significantly different
